In patent US20250092035A1, “ISOCITRATE DEHYDROGENASE 1 INHIBITORS AND METHODS OF USE THEREOF” (THE WISTAR INSTITUTE OF ANATOMY AND BIOLOGY, priority 2022, published 2025):

Assays:
wtIDH2 = biological target: T1, wtIDH2 (Homo sapiens, UniProt P48735); experiment: Cell-based IDH2 activity in MiaPaCa-2 PC cells
T1 construct: endogenous in cells; host or cells: MiaPaCa-2 pancreatic cancer cells (IDH1 silenced by siRNA)
T1 sequence (P48735 40-452): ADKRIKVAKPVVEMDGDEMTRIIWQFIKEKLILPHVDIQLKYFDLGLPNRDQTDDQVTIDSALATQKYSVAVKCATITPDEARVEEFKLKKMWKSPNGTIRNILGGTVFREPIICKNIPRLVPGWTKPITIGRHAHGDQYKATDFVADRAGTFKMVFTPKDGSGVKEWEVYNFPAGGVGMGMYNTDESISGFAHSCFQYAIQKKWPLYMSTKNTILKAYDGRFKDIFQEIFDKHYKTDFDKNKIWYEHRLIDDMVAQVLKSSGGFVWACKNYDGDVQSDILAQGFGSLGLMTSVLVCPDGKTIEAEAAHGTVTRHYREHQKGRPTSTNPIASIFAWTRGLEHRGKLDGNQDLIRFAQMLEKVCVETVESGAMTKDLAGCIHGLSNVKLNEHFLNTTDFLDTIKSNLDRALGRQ
Description: IDH activity assay. Cell-based wtIDH activity is measured by quantitation of IDH-dependent NADPH synthesis (Abcam, ab 102528). The reaction measures the activity of both IDH1 and IDH2 isoenzymes. IDH1 activity is specifically measured using the same assay after transient siRNA silencing of IDH2 (Extended Data FIG. 6i). The opposite approach is used to estimate IDH2 activity. All readouts were normalized to cell number. Cell-free wtIDH1 activity was performed by a fluorometric assay measuring NADPH levels at 355/460 nm. The assay contained 0.25 nM human recombinant IDH1 (RD systems), 30 μM isocitrate, and 30 μM NADP^+ in 20 μL of 100 mM Tris-HCL, pH8, 0.2 mM DTT, 0.05% CHAPS, and MgCl2 at the indicated levels. Formation of NADPH was measured over 40 min at 5 min intervals.

murine PC models = experiment: KPC and tamoxifen-inducible KP−/−C mouse models; type: in vivo; settings: two difficult-to-treat murine PC models
Description: In vivo studies. […] Mice were maintained under pathogen-free conditions in the animal facility. No additional food or nutrient-contained bedding provided to the animals during these studies. […] Mice on a mixed background were bred in-house at the CRUK Beatson Institute and maintained in conventional caging with environmental enrichment, access to standard chow and water ad libitum. […] Mice were monitored 3 times weekly and when a diagnosis of pancreatic cancer was made by abdominal palpation, this was confirmed by high-resolution ultrasound imaging, using the VisualSonics Vevo 3100 preclinical imaging platform (FUJIFILM VisualSonics, Toronto, Canada). Anesthesia was induced and maintained with a mixture of isoflurane and medical air. Mice were imaged weekly to monitor tumor progression and tumor volume was assessed for each mouse and plotted longitudinally. […] Tamoxifen dissolved in corn oil at 20 mg/ml, and animals received tamoxifen (75 mg/kg, IP administration, once daily) for six consecutive days. For flank xenograft experiments, 1×10^6 cells were suspended in 200 μL of a PBS:matrigel solution (1:1) and injected subcutaneously into the right flank of mice. […] For all flank xenograft experiments, tumor volumes were measured twice per week using a caliper (volume=length×width^2/2). […] Body weights were measured once weekly for the indicated time. […]

Human PC cells = experiment: Clonogenic growth of human PC cells; type: cell-based; settings: low Mg2+ and glucose
Description: (§1) Clonogenic assay. 1000-2000 cells per well were plated in six-well plates. Media was not changed during experiments unless indicated. […] Upon completion of the experiments, colonies were fixed in a reagent containing 80% methanol and stained with 0.5% crystal violet. To determine relative growth, dye was extracted from stained colonies with 10% acetic acid and the associated absorbance measured at 600 nm using a Microplate Reader (GloMax Explorer system, Promega).

MiaPaCa-2 cells = settings: PC cells
[1] = biological target: T2, IDH1 protein in MiaPaCa-2 PC cells (Homo sapiens, UniProt O75874); experiment: Cellular thermal shift assay; type: cell-based; settings: 1 μM
T2 construct: endogenous in cells; host or cells: MiaPaCa-2 pancreatic cancer cells
Description: Cellular Thermal Shift assay. Thermal shift experiments were performed as previously described (72). Briefly, cells were cultured in media containing the indicated experimental concentrations of MgSO4 under standard conditions (25 mM glucose, 4 mM glutamine and 10% FBS) for 24 hours. […] Cells were then trypsinized, washed with PBS, suspended in PBS (containing protease inhibitors), lysed through three freeze-thaw cycles at liquid nitrogen−37° C., and then heated at the indicated temperatures for three minutes. Preparations were spun down at 13,000 rpm for 10 min at 4° C. to remove denatured proteins, and supernatants were loaded on a Western blot gel. Western blots were performed as described.

KPC allografts = experiment: Subcutaneous KPC allografts in nude mice; type: in vivo, mouse; settings: flanks of nude mice
Description: In vivo studies. […] Mice were maintained under pathogen-free conditions in the animal facility. No additional food or nutrient-contained bedding provided to the animals during these studies. […] Mice with subcutaneous PDX were purchased from The Jackson Laboratory (#TM01212). […] For flank xenograft experiments, 1×10^6 cells were suspended in 200 μL of a PBS:matrigel solution (1:1) and injected subcutaneously into the right flank of mice. […] Equal number of male and female mice were used. […] For the indicated experiments, hyperglycemia was induced by allowing mice to drink high glucose content water (30% dextrose; abbreviated as D30 water) starting two weeks before cancer cell implantation. […] An equal volume of vehicle was administrated to control mice. NAC water (1.2 g/L) was refreshed twice weekly for the indicated experiments. A high magnesium diet, magnesium sulfate water (MgSO4, 1.5 g/L) was used for the indicated experiments. For all flank xenograft experiments, tumor volumes were measured twice per week using a caliper (volume=length×width^2/2). Upon termination of animal experiments, mice were euthanized using carbon dioxide inhalation followed by cervical dislocation, and tumors were harvested. Body weights were measured once weekly for the indicated time.

MiaPaCa-2 PC cells = experiment: ROS levels (DCFDA assay); type: cell-based, human
Description: ROS and 8-OHdG quantification. Cells were incubated in a 96-well plate with 10 μM H2-DCFDA (Life Technology, D399) for 45 min in serum-free media to detect total intracellular ROS. For mitochondrial-specific ROS, cells were incubated with 5 μM MitoSOX Red (Life Technologies, M36008) for 30 min in serum-free media. Cells were washed with PBS, and fluorescence measured according to manufacturer instructions using a Microplate Reader (GloMax Explorer system, Promega). 8-OHdG was measured according to the manufacturer's instructions (Abcam, AB201734). Readouts were normalized to cell number.

PC cells [2] = experiment: Metabolic profiling (αKG, TCA metabolites) in PC cells; type: cell-based, human
PC cells [3] = experiment: Oxygen consumption rate (Seahorse); type: cell-based, human
Description: Cell bioenergetic assays. Oxygen consumption rates (OCR) and extracellular acidification rates (ECAR) were measured using the Seahorse XFp Extracellular Flux Analyzer (Seahorse Bioscience) according to the manufacturer's instructions. For OCR experiments, cells were cultured in 4 mM glutamine, 5% FBS, and the indicated glucose levels for 24-36 hours. Mitochondrial membrane potential was measured with TMRE staining (Invitrogen, T669) according to the manufacturer's instructions. […] NADPH (abcam, ab65349), GSH/GSSG ratio (Promega, V6611), and ATP (abcam, 83355) measurements were performed according to the manufacturer's instructions. All readouts were normalized to cell number.

HCT116 cells = experiment: Clonogenic growth of colon cancer cells; type: cell-based, human; settings: low Mg2+ and glucose
Description: as §1

T2 sequence (O75874 2-414 limits assumed): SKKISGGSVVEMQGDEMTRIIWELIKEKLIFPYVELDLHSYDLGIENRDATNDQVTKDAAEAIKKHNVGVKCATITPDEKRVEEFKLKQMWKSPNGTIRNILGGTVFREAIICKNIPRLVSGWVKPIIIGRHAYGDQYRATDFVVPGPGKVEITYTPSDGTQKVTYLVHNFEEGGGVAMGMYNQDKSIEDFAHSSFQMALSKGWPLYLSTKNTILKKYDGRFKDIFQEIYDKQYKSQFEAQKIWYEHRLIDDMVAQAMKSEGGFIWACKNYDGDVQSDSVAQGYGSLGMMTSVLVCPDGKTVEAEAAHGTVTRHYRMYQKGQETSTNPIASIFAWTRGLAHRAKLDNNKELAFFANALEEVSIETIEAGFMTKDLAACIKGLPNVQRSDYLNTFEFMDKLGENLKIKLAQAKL

**Q.** Which “inhibitory activity against wtIDH2” value (wtIDH2) does the source give for `N#Cc1ccnc(N2C(=O)CC[C@H]2C(=O)N(c2cncc(F)c2)[C@H](C(=O)NC2CC(F)(F)C2)c2ccccc2Cl)c1` [AG-120, ivosidenib] here?
**A.** Its value is “no inhibitory activity”.

**Q.** What about the “survival and tumor volumes” value (murine PC models) of the same molecule?
**A.** The value was “did not reach statistical significance”.

**Q.** And the cell survival (Human PC cells)?
**A.** Its cell survival is “markedly impaired survival”.

**Q.** And the “combination with chemotherapeutic agents” value (MiaPaCa-2 cells)?
**A.** The value was “enhanced the efficacy of chemotherapeutic agents”.

**Q.** What about the “thermal stabilization of IDH1” value ([1]; higher Mg2+ levels) of the same molecule?
**A.** Its value is “no effect”.

**Q.** What about the “thermal stabilization of IDH1” value ([1]; low Mg2+ concentrations) of the same molecule?
**A.** The value was “stabilized the protein”.

**Q.** What about the allograft growth (KPC allografts) of the same molecule?
**A.** The allograft growth was “reduced the growth of KPC allografts”.

**Q.** And the “intracellular ROS” value (MiaPaCa-2 PC cells; higher Mg2+ levels)?
**A.** The value was “No such effect”.

**Q.** What about the “intracellular ROS” value (MiaPaCa-2 PC cells; low Mg2+ combined with low glucose) of the same molecule?
**A.** Its value is “surge in intracellular ROS”.

**Q.** What about the TCA metabolite levels (PC cells [2]; low glucose and Mg2+) of the same molecule?
**A.** The TCA metabolite levels was “reduced TCA metabolites levels”.

**Q.** What about the αKG levels (PC cells [2]; low glucose conditions) of the same molecule?
**A.** Its αKG levels is “reduced αKG levels”.

**Q.** And the oxygen consumption (PC cells [3]; low Mg2+ and glucose)?
**A.** The oxygen consumption was “severely impaired oxygen consumption”.

**Q.** And the oxygen consumption (PC cells [3]; standard Mg2+ and low glucose)?
**A.** The oxygen consumption was “no effect on oxygen consumption”.

**Q.** And the tolerability (HCT116 xenografts; female, athymic nude (Foxn1 nu/nu), mouse, in vivo)?
**A.** Its tolerability is “tolerated AG-120 treatment extremely well”.

**Q.** And the tumor growth (HCT116 xenografts; oral, vs control arm)?
**A.** Its tumor growth is “significantly diminished tumor growth”.

**Q.** And the response in culture (HCT116 cells)?
**A.** Its response in culture is “responded to the drug”.
